Experimental data reported in patent US4263299A, “Heterocyclic coumarin derivatives” (Beecham Group Limited, priority 1978, dated 1981).
Where two headings read alike, the source gives them in different places.

How the values were obtained:
mice = experiment: Acute intravenous toxicity in mice; format: in vivo, mouse
[1] = target: T1, histamine (spasmogenic effects) on isolated guinea pig ileum (Cavia porcellus, UniProt P31389); experiment: Anti-histamine activity in vitro on guinea pig ileum (pA2); details: for Kb: read-out: pA2 Mean ± SEM (antihistamine activity in vitro) (converted)
T1 construct: isolated guinea pig ileum; from tissue; host or cells: isolated guinea pig ileum
T1 sequence (P31389 whole entry): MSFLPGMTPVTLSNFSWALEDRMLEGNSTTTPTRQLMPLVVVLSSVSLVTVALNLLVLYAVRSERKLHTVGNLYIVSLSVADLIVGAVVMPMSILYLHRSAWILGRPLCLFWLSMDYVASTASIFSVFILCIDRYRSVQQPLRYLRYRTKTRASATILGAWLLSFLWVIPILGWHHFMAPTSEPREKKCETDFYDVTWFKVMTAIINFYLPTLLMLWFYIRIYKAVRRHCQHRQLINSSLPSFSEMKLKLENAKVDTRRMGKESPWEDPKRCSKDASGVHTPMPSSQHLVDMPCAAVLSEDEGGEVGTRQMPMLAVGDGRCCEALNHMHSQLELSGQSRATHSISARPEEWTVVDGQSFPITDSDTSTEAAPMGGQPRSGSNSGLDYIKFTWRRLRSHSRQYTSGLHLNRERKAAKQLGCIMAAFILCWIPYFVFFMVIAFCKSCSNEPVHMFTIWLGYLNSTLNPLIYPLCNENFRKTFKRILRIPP
Method: (b) antagonise the spasmogenic effects of histamine on isolated guinea pig ileum.
(b) Measurement of anti-histamine activity in vitro on guinea pig ileum using the […]
The pA2 of the compound was determined in a similar manner to that described by Schild, H. O. (pA, A new scale for the measurement of drug antagonism. Brit. J. Pharmacol. 2, 189, 1947).

[2] = test system: rat passive peritoneal anaphylaxis; experiment: Rat passive peritoneal anaphylaxis (PPA); format: in vivo; details: mean ± SEM, 3-7 rats per group
Source text: (a) inhibit rat passive peritoneal anaphylaxis; and
(a) Rat passive peritoneal anaphylaxis (PPA)
The method has been described previously (Ross, Janet W., Smith, H. and Spicer, Barbara A. Increased vascular permeability during passive peritoneal anaphylaxis in the rat. Int. Arch. Allergy appl. Immun. 51, 226, 1976.)
Serum containing heat-labile homocytotropic antibody was raised in rats to ovalbumin by a method similar to that described by Mota, I. (The mechanism of anaphylaxis. I. Production and biological properties of mast cell sensitising antibody. Immunology, 7, 681; 1964). Male Wistar rats of 250-300 g were given intraperitoneal injections of 0.5 ml of Bordetella pertussis vaccine (4×10^10 organisms/ml; Burroughs Wellcome, London) and subcutaneous injections of 0.5 ml of an emulsion of 100 mg of ovalbumin in 2 ml of isotonic saline and 3 ml of Freund's incomplete adjuvant. The rats were bled by cardiac puncture on day 18, the blood was pooled and the serum separated, stored at -20° C. and thawed only once before use. The serum produced PCA activity in recipient rats down to a dilution of 1:32 to 1:64 after 72 hr and persisted for several days. This activity was lost to a dilution of 1:2 by heating at 56° for 4 hr even when the sensitising period was reduced to 4 hr.
Passive peritoneal anaphylaxis
Rats were given intraperitoneal injections of 2 ml of a 1:5 dilution of the rat anti-serum in isotonic saline. 2 hr later 0.3 ml of a 5% solution of Pontamine Sky Blue (Raymond A. Lamb, London) is isotonic saline was injected intravenously, followed by an intraperitoneal injection of the test compound in 1 ml of saline; (control rats received 1 ml of saline); followed 30 sec. later by an intraperitoneal injection of 5 ml of a Tyrode solution containing 50 μg/ml heparin and 0.4 mg/ml of ovalbumin. The concentrations of the compounds were quoted as those in the 6 ml of fluid injected intraperitoneally. Extractly 5 min. after challenge the rats were stunned and bled and their peritoneal fluids were collected by opening their peritoneal cavities over funnels into polycarbonate tubes in ice. The supernatants were separated from the cellular residue by centrifuging at 150 g for 5 min. and any samples obviously contaminated with blood were discarded and the remainder were retained for estimation of dye, histamine and SRS-A. Groups of at least 5 rats were used for each dose of compound and the treatments were randomized.
Assay of peritoneal fluids
Collected peritoneal fluids were immediately cooled to 0° C. and centrifuged and the supernatant fluids assayed for dye within 2 hr. 0.5-ml samples of the supernatants were added to 1 ml of 12% trichloracetic acid and stored at -20° C. and used to assay for histamine. The remainders of the supernatant fluids were placed in a boiling water bath for 5 min. and stored frozen at -20° C. until assayed for SRS-A.
The optical densities (OD) at 625 nm of the supernatants were determined. Samples were taken from supernatants with an OD greater than 2 and diluted in Tyrode's solution before reading.
Histamine was assayed using an automated spectrofluorimetric system (Technicon Autoanalyser) by a method similar to that of Evans, D. P., Lewis, J. A. and Thomson, D. S.: (An automated fluorimetric assay for the rapid determination of histamine in biological fluids. Life Sci. 12,327, 1973).
SRS-A was assayed on the isolated guinea pig ileum preparation in the presence of atropine (5×10^-7 M) and mepyramine maleate (10^-6 M), the latter to abolish the histamine response. (Brocklehurst, W. E. The release of histamine and formulation of a slow reacting substance (SRS-A) during anaphylactic shock. J. Physiol., Lond. 151, 416, 1960). Bulked peritoneal fluids from passively sensitised and challenged rats were centrifuged, heated, stored at -20° C. in 0.5 ml aliquots, and used as a reference SRS-A standard, and arbitrarily designated as containing 10 Units per ml. […]

[3] = contact time 10.0 min, (part assay) for 4d

SMILES	Kb ([1]; contact time 0.5 min)	Kb ([1]; contact time 2.0 min)	pA2 Mean ± SEM (antihistamine activity in vitro) [1, 3]	Kb [1, 3]	Dye concentration in peritoneal fluid as % of that in control rats not given compound ([2]; 2 × 10^-6 M injected i.p.)	Histamine concentration in peritoneal fluid as % of that in control rats not given compound ([2]; 2 × 10^-6 M injected i.p.)	SRSA concentration in peritoneal fluid as % of that in control rats not given compound ([2]; 2 × 10^-6 M injected i.p.)	Dye concentration in peritoneal fluid as % of that in control rats not given compound ([2]; 2 × 10^-5 M injected i.p.)	Histamine concentration in peritoneal fluid as % of that in control rats not given compound ([2]; 2 × 10^-5 M injected i.p.)	SRSA concentration in peritoneal fluid as % of that in control rats not given compound ([2]; 2 × 10^-5 M injected i.p.)	Dye concentration in peritoneal fluid as % of that in control rats not given compound ([2]; 2 × 10^-4 M injected i.p.)	Histamine concentration in peritoneal fluid as % of that in control rats not given compound ([2]; 2 × 10^-4 M injected i.p.)	SRSA concentration in peritoneal fluid as % of that in control rats not given compound ([2]; 2 × 10^-4 M injected i.p.)	further results
O=c1oc2cc(OCCCN3CCN(Cc4ccc(Cl)cc4)CC3)ccc2c(O)c1[N+](=O)[O-] [Example 1f, 1-(4-Chlorobenzyl)-4-[3-(4-hydroxy-3-nitrocoumarin-7-yloxy)propyl]piperazine]	15.8 nM	2.51 nM		0.631 nM	32.1 ± 3.6%	28.4 ± 3.4%	62.5 ± 17.2%							Deaths in mice at the high dose (mice; mice, intravenous, 300 mg/kg, group of three): all animals died; Deaths in mice during four days (mice; mice, intravenous, 1, 3 and 10 mg/kg, three groups of ten): No deaths occurred; Deaths in mice at the two lower doses (mice; mouse, in vivo): none; Dye concentration in peritoneal fluid as % of that in control rats not given compound ([2]; 2 × 10^-7 M injected i.p.): 88.1 ± 8.3%; Histamine concentration in peritoneal fluid as % of that in control rats not given compound ([2]; 2 × 10^-7 M injected i.p.): 75.8 ± 7.5%; SRSA concentration in peritoneal fluid as % of that in control rats not given compound ([2]; 2 × 10^-7 M injected i.p.): 71.8 ± 14.8%; Dye concentration in peritoneal fluid as % of that in control rats not given compound ([2]; 2 × 10^-8 M injected i.p.): 100 ± 16.7%; Histamine concentration in peritoneal fluid as % of that in control rats not given compound ([2]; 2 × 10^-8 M injected i.p.): 99.6 ± 8.3%; SRSA concentration in peritoneal fluid as % of that in control rats not given compound ([2]; 2 × 10^-8 M injected i.p.): 100 ± 14.8%
O=c1oc2cc(OCC(O)CN3CCN(Cc4ccc(Cl)cc4)CC3)ccc2c(O)c1[N+](=O)[O-] (centres unmarked) [Example 2d, 1-(4-Chlorobenzyl)-4-[2-hydroxy-3-(4-hydroxy-3-nitrocoumarin-7-yloxy)propyl]piperazine]	50.1 nM	20 nM	8.3		46 ± 4%	23 ± 1.0%	65 ± 13%	36 ± 4%	13 ± 0.9%	47 ± 11%				
CCCc1c(OCC(O)CN2CCN(Cc3ccc(Cl)cc3)CC2)ccc2c(O)c([N+](=O)[O-])c(=O)oc12 (centres unmarked) [Example 3d, 1-(4-chlorobenzyl)-4-[2-hydroxy-3-(4-hydroxy-3-nitro-8-n-propylcoumarin-7-yloxy)propyl]piperazine]	25.1 nM	10 nM	8.4		79 ± 9%	55 ± 9%	81 ± 6%	47 ± 6%	15 ± 2%	75 ± 9%				
O=c1oc2cc(CN3CCN(Cc4ccc(Cl)cc4)CC3)ccc2c(O)c1[N+](=O)[O-] [Example 5e, 1-(4-Chlorobenzyl)-4-[(4-hydroxy-3-nitrocoumarin-7-yl)methyl]piperazine]	2000 nM	2000 nM	5.6		103 ± 13%	93 ± 18%	94 ± 10%	88 ± 14%	31 ± 2%	67 ± 15%	28 ± 9%	17 ± 3%		

Further lines, with some results ahead:

Kb ([1]; contact time 0.5 min)	Kb ([1]; contact time 2.0 min)	pA2 Mean ± SEM (antihistamine activity in vitro) [1, 3]	SMILES	Kb [1, 3]	Dye concentration in peritoneal fluid as % of that in control rats not given compound ([2]; 2 × 10^-6 M injected i.p.)	Histamine concentration in peritoneal fluid as % of that in control rats not given compound ([2]; 2 × 10^-6 M injected i.p.)	SRSA concentration in peritoneal fluid as % of that in control rats not given compound ([2]; 2 × 10^-6 M injected i.p.)	Dye concentration in peritoneal fluid as % of that in control rats not given compound ([2]; 2 × 10^-5 M injected i.p.)	Histamine concentration in peritoneal fluid as % of that in control rats not given compound ([2]; 2 × 10^-5 M injected i.p.)	SRSA concentration in peritoneal fluid as % of that in control rats not given compound ([2]; 2 × 10^-5 M injected i.p.)	Dye concentration in peritoneal fluid as % of that in control rats not given compound ([2]; 2 × 10^-4 M injected i.p.)	Histamine concentration in peritoneal fluid as % of that in control rats not given compound ([2]; 2 × 10^-4 M injected i.p.)	SRSA concentration in peritoneal fluid as % of that in control rats not given compound ([2]; 2 × 10^-4 M injected i.p.)	further results
63.1 nM	50.1 nM		O=c1oc2cc(OCCN3CCN(Cc4ccc(Cl)cc4)CC3)ccc2c(O)c1[N+](=O)[O-] [Example 4d, 1-(4-Chlorobenzyl)-4-[2-(4-hydroxy-3-nitrocoumarin-7-yloxy)ethyl]piperazine]	~126 nM				65 ± 11%	39 ± 8%	73 ± 7%	40 ± 7%	11 ± 0.9%	26 ± 6%	
79.4 nM	25.1 nM	7.9	O=c1oc2cc(OCCCN3CCN(Cc4ccccc4)CC3)ccc2c(O)c1[N+](=O)[O-] [Example 6d, 1-Benzyl-4-[3-(4-hydroxy-3-nitrocoumarin-7-yloxy)propyl]piperazine]					91 ± 12%	56 ± 8%	86 ± 14%	67 ± 10%	12 ± 1.0%	55 ± 5%	
